Experimental data: patent US11198673B2, “Therapeutic compounds and compositions” (eXIthera Pharmaceuticals, Inc., priority 2014, dated 2021)
Values after ≈ are worked out from the molar mass of the structure shown.

Experiments:
in vitro [1] = details: both, human, microsomes, pH 7.4
Description: The following procedure was used to determine the stability of a test compound in pooled liver microsomes from human (mixed gender) in 96-well plate format. The test compound was quantified at five time points by HPLC-MS/MS analysis. The final microsomal protein concentration in the assay was 0.1 mg/mL. […] The test compound was pre-incubated with human liver microsomes in phosphate buffer (pH 7.4) for 5 min in a 37° C. shaking waterbath. The reaction was initiated by adding NADPH-generating system and incubated for 0, 15, 30, 45, and 60 minutes. The reaction was stopped by transferring the incubation mixture to acetonitrile/methanol. Samples were then mixed and centrifuged and the supernatants used for HPLC-MS/MS analysis. Peak areas corresponding to the test compound were recorded. The compound remaining was calculated by comparing the peak area at each time point to time zero.

Factor Xa = biological target: T1, Factor Xa (Homo sapiens, UniProt P00742); test: Dose response assay for protease inhibitors: Factor Xa (FXIa fold selectivity); type: biochemical; details: fold selectivity for FXIa over Factor Xa
T1 construct: Factor Xa; 0.2 μM in 50% glycerol (9.2 μg/mL)
Description: (§1) • Assay buffer: 20 mM Hepes, pH 7.4; 150 mM NaCl; 0.02% Tween 20 • Compounds: 10 mM stocks in DMSO • Substrate: 20 mM Glp-Pro-Arg-AMC, 25 mg/2.3 mL H2O (store at +4° C.) [Factor XIa, thrombin, and trypsin] • 20 mM Pro-Phe-Arg-AMC (Bachem I-1295), 25 mg/2.2 mL H2O (store at +4° C.) [Factor Xa] • Enzyme: Factor XIa; 0.25 μM in 50% glycerol (20 μg/mL) • Trypsin; 0.2 μM in 50% glycerol (4.8 μg/mL) • Thrombin; 0.2 μM in 50% glycerol (7.34 μg/mL) • Factor Xa; 0.2 μM in 50% glycerol (9.2 μg/mL) • These stocks are aliquoted ([…]) and stored at −20° C. Methods: • 1. Dilute the substrate to 100 μM in assay buffer (30 μL/6 mL). The enzyme is diluted to 0.5 nM just prior to use (12 μL/6 mL for Factor XIa; 15 μL/6 mL for all of the rest.) • 2. Pipette 50 μL of substrate into each well of the 96 well (12×8) microtiter plate. (Column 1 is used as the 100% activity control and receives no compound, and Column 12 is the blank and receives no enzyme.) Add an additional 46 μL to column 2. • 3. Pipette 4 μL of each compound into the appropriate well in column 2 of the plate (unknowns assayed in triplicate, standard assayed in duplicate). The final compound concentration will be 1/50th of the stock. • 4. Serially two-fold dilute the compound by mixing the sample in column 2, removing 50 μL to the next well (column 3), mix and remove to column 4, etc. until column 11. After mixing column 11, remove 50 μL and discard. • 5. Pipette 50 μL of buffer into column 12. Initiate the reaction by adding 50 μL of enzyme solution to each well of columns 1-11 as rapidly as possible. • 6. Read the plate in a spectrophotometer (SpectraMax) at 30° C., wherein each well is measured every 60 s for 30 min. For Factor Xa assays, each well is measured every 1 min for a total of 60 min. • 7. For Factor XIa assays, the compounds are assayed, in duplicate, at 3 different starting concentrations, 20, 2, and 0.2 μM; 1:10, 1:100, and 1:1000 dil'n of 10 mM stock. All data sets are combined for graphing and data fitting. • 8. Data can be used both for estimation of IC50 and for estimation of Kon.

human Factor XIa = biological target: T2, human Factor XIa (Homo sapiens, UniProt P03951); test: Factor XIa enzyme inhibition assay (IC50, purified enzyme); type: biochemical; details: purified enzyme 0.25 nM, substrate 50 μM; read-out: Potency hFXIa IC50
T2 construct: Enzyme: Factor XIa; 0.25 μM in 50% glycerol (20 μg/mL)
Outline: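 Fluorogenic Glp-Pro-Arg-AMC cleavage, 50 μM substrate, 0.25 nM enzyme, in 20 mM Hepes pH 7.4, 150 mM NaCl, 0.02% Tween 20. Serial two-fold compound dilutions from starting concentrations of 20, 2 and 0.2 μM. Read every minute for 30 min at 30° C; IC50 from a four-parameter fit of dose-response.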

Thrombin = biological target: T3, Thrombin (Homo sapiens, UniProt P00734); test: Dose response assay for protease inhibitors: thrombin (FXIa fold selectivity); type: biochemical; details: fold selectivity for FXIa over thrombin
T3 construct: Thrombin; 0.2 μM in 50% glycerol (7.34 μg/mL)
Description: as §1

Trypsin = test: Dose response assay for protease inhibitors: trypsin (FXIa fold selectivity); type: biochemical; details: fold selectivity for FXIa over trypsin
Description: as §1

physchem = type: physicochemical; details: pH 7.4, aqueous buffer, kinetic from dmso stock
Description: The test compound was prepared at 200 μM in PBS from a 10 mM DMSO stock solution. The final DMSO concentration was 2%. The PBS buffer samples were mixed thoroughly followed by incubation at room temperature for 24 h. At the end of the incubation, the PBS buffer samples were centrifuged and supernatants analyzed by HPLC.

in vitro [2] = details: for fraction unbound at 4 h, 10 µM: both, human, plasma, pH 7.4
Description: The following procedure was used to determine the plasma protein binding of a test compound in pooled plasma from human (mixed gender) via equilibrium dialysis in a 96-well plate format. The dialysate compartment is loaded with phosphate-buffered saline (pH 7.4) and the sample side is loaded with plasma spiked with the test compound at a concentration of 10 μM. After loading, samples are covered and incubated for 4 hours at 37° C. After incubation, each compartment is sampled, diluted with acetonitrile/buffer and centrifuged. The supernatants are analyzed by HPLC-MS/MS. The amount measured in the plasma compartment includes both free and bound drug, while that on the buffer side represents free drug only; the differences are used to calculate the percentage plasma protein bound.

[3] = β-Lactam stability in rat plasma; type: in vitro ADME; details: normal rat plasma, room temperature; read-out: Rat Plasma Stability (T1/2; min)
Outline: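 Compounds incubated in normal rat plasma at room temperature, sampled into acetonitrile from 2 to 480 min. Supernatants analysed by HPLC-MS on C18, extracted ion chromatograms of parent and parent+18 (H2O adduct) integrated; T½ = ln(2)/k from single-phase exponential decay fit.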

T1 sequence (P00742 235-488 limits assumed): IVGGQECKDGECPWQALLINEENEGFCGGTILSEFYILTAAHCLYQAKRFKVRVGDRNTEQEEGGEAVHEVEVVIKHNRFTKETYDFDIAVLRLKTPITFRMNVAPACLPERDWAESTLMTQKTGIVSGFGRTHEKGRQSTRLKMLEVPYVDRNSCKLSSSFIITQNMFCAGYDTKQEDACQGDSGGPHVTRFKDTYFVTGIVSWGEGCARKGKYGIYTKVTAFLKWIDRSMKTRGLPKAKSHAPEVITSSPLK
T1 sequence (P00742 41-179 partner limits assumed): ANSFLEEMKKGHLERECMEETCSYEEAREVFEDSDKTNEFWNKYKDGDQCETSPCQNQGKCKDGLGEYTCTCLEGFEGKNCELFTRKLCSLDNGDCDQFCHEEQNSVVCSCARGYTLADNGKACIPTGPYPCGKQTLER
T2 sequence (P03951 388-625 limits assumed): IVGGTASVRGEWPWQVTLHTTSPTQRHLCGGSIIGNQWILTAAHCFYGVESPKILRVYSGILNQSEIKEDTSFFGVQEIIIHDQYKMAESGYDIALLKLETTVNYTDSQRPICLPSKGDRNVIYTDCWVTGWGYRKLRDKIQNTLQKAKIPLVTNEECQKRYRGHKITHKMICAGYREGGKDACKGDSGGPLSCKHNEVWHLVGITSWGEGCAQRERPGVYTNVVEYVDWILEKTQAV
T2 sequence (P03951 19-387 partner limits assumed): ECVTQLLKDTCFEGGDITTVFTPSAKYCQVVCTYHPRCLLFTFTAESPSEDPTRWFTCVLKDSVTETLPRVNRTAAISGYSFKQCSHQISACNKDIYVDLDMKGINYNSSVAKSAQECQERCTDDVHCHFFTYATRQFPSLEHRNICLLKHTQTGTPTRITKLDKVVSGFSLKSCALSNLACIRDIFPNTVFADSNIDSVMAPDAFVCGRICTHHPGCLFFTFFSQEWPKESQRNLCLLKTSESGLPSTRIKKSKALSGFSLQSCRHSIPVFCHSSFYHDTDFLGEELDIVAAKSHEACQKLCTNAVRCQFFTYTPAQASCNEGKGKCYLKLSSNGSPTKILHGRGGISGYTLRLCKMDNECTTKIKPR

Structure (SMILES)	half-life at 0.1 µM (in vitro [1]) [h]	FXIa Fold Selectivity FXa (Factor Xa)	IC50 (human Factor XIa) [nM]	FXIa Fold Selectivity Thrombin (Thrombin)	solubility at 4 h (physchem) [µM]	fraction unbound at 4 h, 10 µM (in vitro [2])	half-life [3] [h]	binding of reference compounds to human plasma proteins (in vitro [2])	solubility at 24 h (physchem) [µM]	FXIa Fold Selectivity Trypsin (Trypsin)
C[C@@H](NC(=O)N1C(=O)[C@H](Cc2ccnc(N)c2)[C@H]1C(=O)O)C1CCCCC1 [Example 38]	> 1	I (“I” indicates >1000)	< 10	I (“I” indicates >1000)	> 100	> 0.1	> 1.67			H (“H” indicates 500-1000)
Nc1cc(C[C@H]2C(=O)N(C(=O)N[C@@H](C3CCCCC3)C(F)(F)F)[C@@H]2C(=O)O)ccn1 [Example 88]	> 1	I (“I” indicates >1000)	< 10	I (“I” indicates >1000)	> 100	> 0.1	> 1.67			G (“G” indicates 1-500)
O=C(O)[C@@H]1[C@@H](Cc2ccncc2)C(=O)N1C(=O)N[C@@H](C1CCCCC1)C(F)(F)F [Example 135]		G (“G” indicates 1-500)	100 to 1000	G (“G” indicates 1-500)			> 1.67			G (“G” indicates 1-500)
CCOC(=O)[C@@H]1[C@@H](Cc2ccnc(NC(=O)OCOC(=O)C(C)C)c2)C(=O)N1C(=O)N[C@H](C)C1CCCCC1 [Example 137]		H (“H” indicates 500-1000)	10 to 100	I (“I” indicates >1000)			< 1.67			I (“I” indicates >1000)
CCOC(=O)[C@@H]1[C@@H](Cc2ccnc(NC(=O)OCOC(=O)C(C)C)c2)C(=O)N1C(=O)N[C@@H](C1CCCCC1)C(F)(F)F [Example 140]		I (“I” indicates >1000)	10 to 100	I (“I” indicates >1000)			< 1.67			G (“G” indicates 1-500)
O=C(O)[C@@H]1[C@@H](CCc2cccc(Cl)c2F)C(=O)N1C(=O)N[C@@H](C1CCCCC1)C(F)(F)F [Example 156]		H (“H” indicates 500-1000)	100 to 1000	I (“I” indicates >1000)			> 1.67			I (“I” indicates >1000)
CCOC(=O)[C@@H]1C(CCc2cccc(Cl)c2)C(=O)N1C(=O)N[C@@H](C1CCCCC1)C(F)(F)F (some centres unmarked) [Example 158]	0.5 to 1		100 to 1000		< 1	> 0.1				
C[C@@H](NC(=O)N1C(=O)[C@H](Cc2ccnc(N)c2)[C@H]1C(=O)O)c1ccc(OC(F)(F)F)cc1 [Example 168]		I (“I” indicates >1000)	< 10	I (“I” indicates >1000)			> 1.67			I (“I” indicates >1000)
CCCC(=O)Nc1ccc(OCC(O)CNC(C)C)c(C(C)=O)c1 (centres unmarked) [acebutolol, reference compound]								low		
COCCc1ccc(OCC(O)CNC(C)C)cc1 (centres unmarked) [metoprolol, reference compound]									200 (≈ 53.5 µg/mL)	
C=C[C@H]1C[N@@]2CC[C@H]1C[C@@H]2[C@@H](O)c1ccnc2ccc(OC)cc12 [quinidine, reference compound]								medium		

Further lines, with some results ahead:

half-life at 0.1 µM (in vitro [1]) [h]	FXIa Fold Selectivity FXa (Factor Xa)	IC50 (human Factor XIa) [nM]	FXIa Fold Selectivity Thrombin (Thrombin)	solubility at 4 h (physchem) [µM]	fraction unbound at 4 h, 10 µM (in vitro [2])	half-life [3] [h]	binding of reference compounds to human plasma proteins (in vitro [2])	solubility at 24 h (physchem) [µM]	Structure (SMILES)	FXIa Fold Selectivity Trypsin (Trypsin)
> 1	I (“I” indicates >1000)	< 10	I (“I” indicates >1000)	> 100	0.02 to 0.1	> 1.67			C[C@@H](NC(=O)N1C(=O)[C@H](Cc2ccnc(N)c2)[C@H]1C(=O)O)c1ccc2c(c1)OC(F)(F)O2 [Example 91]	G (“G” indicates 1-500)
	H (“H” indicates 500-1000)	10 to 100	I (“I” indicates >1000)	1 to 10 (≈ 0.621 to 6.21 µg/mL)		< 1.67			CCOC(=O)[C@@H]1[C@@H](Cc2ccnc(NC(=O)OCOC(=O)C(C)C)c2)C(=O)N1C(=O)N[C@H](C)c1ccc2c(c1)OC(F)(F)O2 [Example 92]	I (“I” indicates >1000)
< 0.5	G (“G” indicates 1-500)	100 to 1000	G (“G” indicates 1-500)	> 100	< 0.02				CC(C)C(=O)OCOC(=O)Nc1cc(C[C@H]2C(=O)N(C(=O)N[C@H](C)c3ccc4c(c3)OC(F)(F)O4)[C@@H]2C(=O)O)ccn1 [Example 100]	G (“G” indicates 1-500)
> 1		> 1000		> 100	< 0.02	> 1.67			C[C@@H](NC(=O)N1C(=O)C(Cc2ccnc(Cl)c2)[C@H]1C(=O)O)c1ccc2c(c1)OC(F)(F)O2 (some centres unmarked) [Example 128]	
	G (“G” indicates 1-500)	100 to 1000	G (“G” indicates 1-500)			< 1.67			CCOC(=O)[C@@H]1[C@@H](Cc2ccnc(NC(=O)[C@H](C)N)c2)C(=O)N1C(=O)N[C@H](C)c1ccc2c(c1)OC(F)(F)O2 [Example 148]	G (“G” indicates 1-500)
	H (“H” indicates 500-1000)	< 10	I (“I” indicates >1000)			< 1.67			CCOC(=O)[C@@H]1[C@@H](Cc2ccnc(N)c2)C(=O)N1C(=O)N[C@@H](C)c1ccc2c(c1)OC(F)(F)O2 [Example 166]	G (“G” indicates 1-500)
	G (“G” indicates 1-500)	10 to 100	G (“G” indicates 1-500)			< 1.67			CCOC(=O)[C@@H]1[C@@H](Cc2ccncc2)C(=O)N1C(=O)N[C@H](C)c1ccc2c(c1)OC(F)(F)O2 [Example 170]	G (“G” indicates 1-500)
